Experimental data taken from patent US9445590B2, “Fungicidal composition comprising a pyridylethylbenzamide derivative and a compound capable of inhibiting the transport of electrons of the respiratory chain in phytopathogenic fungal organisms” (BAYER INTELLECTUAL PROPERTY GMBH, priority 2004, dated 2016).

Assays:
Pyrenophora teres = assay: Efficacy against Pyrenophora teres on barley plants (preventive spray); format: in vivo; details: 288 h, grading 12 days after contamination
Method: (§1) The active ingredients tested are prepared by potter homogenisation in a mixture of acetone/tween/water. This suspension is then diluted with water to obtain the desired active material concentration.
Barley plants (Express variety) in starter cups, sown on a 50/50 peat soil-pozzolana substrate and grown at 12° C., are treated at the 1-leaf stage (10 cm tall) by spraying with the aqueous suspension described above. Plants, used as controls, are treated with an aqueous solution not containing the active material.
After 24 hours, the plants are contaminated by spraying them with an aqueous suspension of Pyrenophora teres spores (12 000 spores per ml). The spores are collected from a 12-day-old culture. The contaminated barley plants are incubated for 24 hours at about 20° C. and at 100% relative humidity, and then for 12 days at 80% relative humidity.
Grading (% of efficacy) is carried out 12 days after the contamination, in comparison with the control plants.

Botrytis cinerea = assay: Efficacy against Botrytis cinerea on gherkin plants (preventive spray); format: in vivo; details: Botrytis cinerea, grading 5 to 7 days after contamination
Method: as §1
Gherkin plants (Petit vert de Paris variety) in starter cups, sown on a 50/50 peat soil-pozzolana substrate and grown at 18-20° C., are treated at the cotyledon Z11 stage by spraying with the aqueous suspension described above. Plants, used as controls, are treated with an aqueous solution not containing the active material.
After 24 hours, the plants are contaminated by depositing drops of an aqueous suspension of Botrytis cinerea spores (150,000 spores per ml) on upper surface of the leaves. The spores are collected from a 15-day-old culture and are suspended in a nutrient solution composed of: • 20 g/L of gelatine • 50 g/L of cane sugar • 2 g/L of NH4NO3 • 1 g/L of KH2PO4
The contaminated gherkin plants are settled for 5/7 days in a climatic room at 15-11° C. (day/night) and at 80% relative humidity. Grading is carried out 5 to 7 days after contamination, in comparison with the control plants.
Gherkin plants (Petit vert de Paris variety) in starter cups, sown on a 50/50 peat soil-pozzolana substrate and grown at 18-20° C., are treated at the cotyledon Z 11 stage by spraying with the aqueous suspension described above. Plants, used as controls, are treated with an aqueous solution not containing the active material.
(§2) The formulated compounds are diluted with water to obtain the desired active material concentration.

[1] = test system: Erysiphe graminis f. sp. tritici; assay: Efficacy against Erysiphe graminis f. sp. tritici on wheat plants (preventive spray); format: in vivo; details: Blumeria graminis, grading 7 to 14 days after contamination
Method: as §1
Wheat plants (Audace variety) in starter cups, sown on 50/50 peat soil-pozzolana substrate and grown at 12° C., are treated at the 1-leaf stage (10 cm tall) by spraying with the aqueous suspension described above.
(§3) Plants, used as controls, are treated with an aqueous solution not containing the active material.
After 24 hours, the plants are contaminated by dusting them with Erysiphe graminis f. sp. tritici spores, the dusting being carried out using diseased plants.
Grading is carried out 7 to 14 days after the contamination, in comparison with the control plants.
as §2
Wheat plants (Audace variety) in starter cups, sown on 50/50 peat soil-pozzolana substrate and grown at 12° C., are treated at the 1-leaf stage (10 cm tall) by spraying with the aqueous suspension described above. Plants, used as controls, are treated with an aqueous solution not containing the active material.

Sphaerotheca fuliginea = assay: Efficacy against Sphaerotheca fuliginea on gherkin plants (preventive spray); format: in vivo; details: Podosphaera fuliginea, 504 h, grading 21 days after contamination
Method: as §1
Gherkin plants (Vert petit de Paris variety) in starter cups, sown on a 50/50 peat soil-pozzolana substrate and grown at 20° C./23° C., are treated at the 2-leaves stage by spraying with the aqueous suspension described above. Plants, used as controls, are treated with an aqueous solution not containing the active material.
After 24 hours, the plants are contaminated by spraying them with an aqueous suspension of Sphaerotheca fuliginea spores (100 000 spores per ml). The spores are collected from a contaminated plants. The contaminated gherkin plants are incubated at about 20° C./25° C. and at 60/70% relative humidity.
Grading (% of efficacy) is carried out 21 days after the contamination, in comparison with the control plants.

Alternaria brassicae [2] = assay: Efficacy against Alternaria brassicae (in vitro), growth on PDA medium; format: cell-based; details: Alternaria brassicae, 336 h, radial growth after 14 days
Method: The growth of Alternaria brassicae was followed on PDA medium containing the compounds alone or in mixtures. The PDA medium is prepared by mixing 39 grams of PDA (Merck) in 1 litter of demineralised water. The medium is sterilized by autoclave 15 minutes at 121° C. The compounds are dissolved in acetone and added to the medium before pouring it in Petri dishes. After medium drying, the fungus is inoculated on the medium and allowed to growth at 19° C. The percentage of efficacy is noted after 14 days of growth (measurement of the radial growth) of the fungus in comparison with a control. […]

Alternaria brassicae [3] = assay: Efficacy against Alternaria brassicae on radish plants (preventive spray); format: in vivo; details: Example 13, dose 4 ppm, grading 6 to 7 days after contamination
Method: as §2
Radish plants (Pernot variety) in starter cups, sown on a 50/50 peat soil-pozzolana substrate and grown at 18-20° C., are treated at the cotyledon stage by spraying with the aqueous suspension described above.
as §3
After 24 hours, the plants are contaminated by spraying them with an aqueous suspension of Alternaria brassicae spores (40,000 spores per cm^3). The spores are collected from a 12-13-day-old culture.
The contaminated radish plants are incubated for 6-7 days at about 18° C., under a humid atmosphere.
Grading is carried out 6 to 7 days after the contamination, in comparison with the control plants.

SMILES: O=C(NCCc1ncc(C(F)(F)F)cc1Cl)c1ccccc1C(F)(F)F [Compound 1, N-{2-[3-chloro-5-(trifluoromethyl)-2-pyridinyl]ethyl}-2-trifluoromethylbenzamide]
- Emax at 4 g/ha (Pyrenophora teres; Example 1, dose 4 g/ha): 20%
- Emax at 8 g/ha (Pyrenophora teres; Example 1, dose 8 g/ha): 50%
- Emax at 37 ppm (Botrytis cinerea; Example 5, dose 37 ppm): 0%
- Emax at 111 ppm (Botrytis cinerea; Example 5, dose 111 ppm): 60%
- Emax at 333 ppm (Botrytis cinerea; Example 5, dose 333 ppm): 90%
- Emax at 37 ppm (Botrytis cinerea; Example 6, dose 37 ppm): 0%
- Emax at 111 ppm (Botrytis cinerea; Example 6, dose 111 ppm): 60%
- Emax at 333 ppm (Botrytis cinerea; Example 6, dose 333 ppm): 100%
- Emax at 12 ppm (Botrytis cinerea; Example 7, dose 12 ppm): 0%
- Emax at 37 ppm (Botrytis cinerea; Example 7, dose 37 ppm): 40%
- Emax at 111 ppm (Botrytis cinerea; Example 7, dose 111 ppm): 92%
- Emax at 37 ppm (Botrytis cinerea; Example 8, dose 37 ppm): 3%
- Emax at 111 ppm (Botrytis cinerea; Example 8, dose 111 ppm): 58%
- Emax at 333 ppm (Botrytis cinerea; Example 8, dose 333 ppm): 75%
- Emax at 37 ppm (Botrytis cinerea; Example 10, dose 37 ppm): 72%
- Emax at 31.2 ppm (Botrytis cinerea; Example 14, dose 31.2 ppm, formulated compounds): 20%
- Emax at 62.5 ppm (Botrytis cinerea; Example 14, dose 62.5 ppm, formulated compounds): 40%
- Emax at 125 ppm ([1]; Example 4, dose 125 ppm): 20%
- Emax at 250 g/ha ([1]; Example 9, dose 250 g/ha, formulated compounds): 50%
- Emax at 4 ppm (Sphaerotheca fuliginea; Example 11, dose 4 ppm): 10%
- Emax at 8 ppm (Sphaerotheca fuliginea; Example 11, dose 8 ppm): 15%
- Emax at 15 ppm (Sphaerotheca fuliginea; Example 11, dose 15 ppm): 25%
- Emax at 7.8 ppm (Sphaerotheca fuliginea; Example 12, dose 7.8 ppm): 10%
- Emax at 15.6 ppm (Sphaerotheca fuliginea; Example 12, dose 15.6 ppm): 18%
- Emax at 31.2 ppm (Sphaerotheca fuliginea; Example 12, dose 31.2 ppm): 86%
- Emax at 0.025 ppm (Alternaria brassicae [2]; Example 2, dose 0.025 ppm): 34%
- Emax at 0.05 ppm (Alternaria brassicae [2]; Example 2, dose 0.05 ppm): 45%
- Emax at 0.1 ppm (Alternaria brassicae [2]; Example 2, dose 0.1 ppm): 53%
- Emax at 0.25 ppm (Alternaria brassicae [2]; Example 2, dose 0.25 ppm): 76%
- Emax at 0.5 ppm (Alternaria brassicae [2]; Example 2, dose 0.5 ppm): 90%
- Emax at 4 ppm (Alternaria brassicae [3]): 40%
